Literature values, collected in patent publication US20090048316A1, “Pharmaceutical composition comprising candesartan cilexetil” (priority 2007, published 2009).
Read-outs that look alike come from different tables or passages of the source.

solubility (in methanol): practically insoluble
solubility (in water): practically insoluble
SMILES: CCOc1nc2cccc(C(=O)OC(C)OC(=O)OC3CCCCC3)c2n1Cc1ccc(-c2ccccc2-c2nnn[nH]2)cc1 (racemic) [Candesartan cilexetil, (±)-1-[[(cyclohexyloxy)carbonyl]oxy]ethyl-2-ethoxy-1-[[2′-(1H-tetrazol-5-yl)[1,1′biphenyl]-4-yl]methyl]-1H-benzimidazole-7-carboxylate]
